# According to ChEMBL document CHEMBL4765274, “The development of advanced structural framework as multi-target-directed ligands for the treatment of Alzheimer's disease” (Eur J Med Chem, 2020):
# Calls of active or inactive are those of the source. The calls are words filed in the database; no cut-off is given here.
# Legend:
# PC-12 = assay: Neuroprotective activity against H2O2-induced cytotoxicity in rat PC-12 cells assessed as increase in cell viability preincubated for 2 hrs followed by H2O2 addition and measured after 24 hrs by MTT assay; format: functional, cell-based; conditions: dose 1-10 µM, time 26.0 hrs
# SH-SY5Y = assay: Cytotoxicity against human SH-SY5Y cells assessed as cell viability up to 100 uM after 48 hrs by MTT assay relative to control; format: cell-based
# Acetylcholinesterase = Acetylcholinesterase (Homo sapiens, UniProt P22303); assay: Mixed type inhibition of human AChE using acetylthiocholine as substrate by Line-weaver Burk plot analysis
# Homo sapiens = species on record: Homo sapiens; assay: Binding affinity to amyloid beta (1 to 42 residues) (unknown origin) assessed as dissociation rate constant by biolayer interferometry analysis
# [1] = Metal chelating activity assessed as Cu2+-compound complex formation in methanol at 37.5 uM by UV-Visible spectra analysis
# [2] = Metal chelating activity assessed as Fe2+-compound complex formation in methanol at 37.5 uM by UV-Visible spectra analysis
# HT-22 [3] = assay: Activation of ubiquitin-proteasome system in mouse HT-22 cells expressing pRK5-GFP-Tau assessed as increase in tau degradation by measuring reduction in GFP level after 24 hrs by flow cytometric analysis; format: cell-based; conditions: filed as activator, dose 2.5-20 µM
# HT-22 [4] = assay: Activation of ubiquitin-proteasome system in mouse HT-22 cells expressing pRK5-GFP-Tau P301L mutant assessed as increase in tau degradation by measuring reduction in GFP level after 24 hrs by fluorescence microscopic method; format: cell-based; conditions: filed as activator, dose 2.5-20 µM
# HT-22 [5] = assay: Activation of ubiquitin-proteasome system in mouse HT-22 cells expressing pEGFP-N1-APP assessed as increase in APP degradation by measuring reduction in GFP level at 2.5 to 20 uM after 24 hrs by Western blot analysis; format: cell-based; conditions: filed as activator, dose 2.5-20 µM
# [6] = Toxicity in 2 dpf zebra fish at 25 ug/ml after 3 days; design: species or system Danio rerio; conditions: zebrafish, 72 h; dose 25 µg/ml, time 3 day
# [7] = Toxicity in 2 dpf zebra fish assessed as absent blood flow at 8.33 ug/ml after 3 days relative to control; format: tissue-based, Danio rerio; conditions: zebrafish, 72 h, at 8.33 µg/mL, time 3 day
# [8] = Toxicity in 2 dpf zebra fish assessed as small brain at 25 ug/ml after 3 days relative to control; format: tissue-based, Danio rerio; conditions: zebrafish, 72 h, at 25 µg/mL, time 3 day
# [9] = Toxicity in 2 dpf zebra fish assessed as dark brown liver at 25 ug/ml after 3 days relative to control; design: species or system Danio rerio; conditions: zebrafish, 72 h, at 25 µg/mL, time 3 day
# [10] = Toxicity in 2 dpf zebra fish assessed as edema in kidney at 25 ug/ml after 3 days relative to control; design: species or system Danio rerio; conditions: zebrafish, 72 h, at 25 µg/mL, time 3 day
# [11] = Toxicity in 2 dpf zebra fish assessed as change in body shape at 25 ug/ml after 3 days relative to control; design: species or system Danio rerio; conditions: zebrafish, 72 h, at 25 µg/mL, time 3 day
# [12] = Toxicity in 3 dpf zebra fish assessed as mortality at 1.56 ug/ml (reference value: 0%); design: species or system Danio rerio; conditions: zebrafish, at 1.56 µg/mL, read-out: Activity
# [13] = Toxicity in 3 dpf zebra fish assessed as mortality at 50 ug/ml (reference value: 0%); design: species or system Danio rerio; conditions: zebrafish, at 50 µg/mL, read-out: Activity
# [14] = Toxicity in 3 dpf zebra fish assessed as mortality at 200 ug/ml (reference value: 0%); design: species or system Danio rerio; conditions: zebrafish, at 200 µg/mL, read-out: Activity
# Danio rerio [15] = species on record: Danio rerio; assay: Antialzheimer activity in Alcl3-induced zebra fish AD model assessed as increase in motility; format: functional, organism-based
# Danio rerio [16] = species on record: Danio rerio; assay: Antialzheimer activity in Alcl3-induced zebra fish AD model assessed as increase dyskinesia recovery rate at 0.78 ug/ml relative to control; format: functional; conditions: dose 0.78 µg/ml
# Danio rerio [17] = species on record: Danio rerio; assay: Antialzheimer activity in Alcl3-induced zebra fish AD model assessed as increase dyskinesia recovery rate; format: functional, organism-based
# Danio rerio [18] = species on record: Danio rerio; assay: Antialzheimer activity in amyloid beta (1 to 40 residues)-induced zebra fish AD model assessed as reduction in vascular injury at 0.26 ug/ml relative to control; format: functional; design: scale not given: the % may be the effect or the level left; conditions: dose 0.26 µg/ml
# Mus musculus [19] = assay: Antialzheimer activity in scopolamine-induced Kunming mouse model of memory impairment assessed as latency time at 5 mg/kg , po by step-down passive avoidance test (reference value: 125.65 sec); format: functional
# Mus musculus [20] = assay: Antialzheimer activity in scopolamine-induced Kunming mouse model of memory impairment assessed as latency time at 50 mg/kg , po by step-down passive avoidance test (reference value: 125.65 sec); format: functional
# Mus musculus [21] = assay: Antialzheimer activity in scopolamine-induced Kunming mouse model of memory impairment assessed as total reads in brain hippocampus at 5 mg/kg , po by illumina sequencing method (reference value: 100%); format: functional
# [22] = Drug metabolism in mouse urine assessed as metabolite formation by UPLC-TOF analysis; format: ADME
# [23] = Drug metabolism in human liver microsomes assessed as metabolite formation by UPLC-TOF analysis; format: ADME, Microsome
# Sequence of Acetylcholinesterase (P22303 whole entry, the tested form may be a part): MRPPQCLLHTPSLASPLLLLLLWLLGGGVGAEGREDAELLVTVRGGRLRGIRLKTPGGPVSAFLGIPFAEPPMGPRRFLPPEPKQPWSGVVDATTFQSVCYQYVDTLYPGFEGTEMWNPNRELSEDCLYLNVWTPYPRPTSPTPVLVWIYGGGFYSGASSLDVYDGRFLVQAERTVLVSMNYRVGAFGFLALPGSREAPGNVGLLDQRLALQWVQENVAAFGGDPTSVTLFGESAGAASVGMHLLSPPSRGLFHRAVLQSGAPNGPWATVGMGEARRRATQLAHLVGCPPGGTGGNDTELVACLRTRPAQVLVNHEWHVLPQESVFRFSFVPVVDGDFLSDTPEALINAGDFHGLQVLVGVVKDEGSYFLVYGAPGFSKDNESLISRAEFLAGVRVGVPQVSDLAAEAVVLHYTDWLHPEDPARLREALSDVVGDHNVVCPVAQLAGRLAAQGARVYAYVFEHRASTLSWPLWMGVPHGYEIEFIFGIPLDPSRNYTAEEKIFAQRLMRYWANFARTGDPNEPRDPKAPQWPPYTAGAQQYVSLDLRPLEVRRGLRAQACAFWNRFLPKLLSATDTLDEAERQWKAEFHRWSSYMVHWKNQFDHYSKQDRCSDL
smiles,measurement,setting,value
CCN(CCCCOc1ccc(-c2cc(=O)c3c(O)cc(OCCCCN(CC)Cc4ccccc4)cc3o2)cc1)Cc1ccccc1,Activity,PC-12,Dose-dependent effect
same,Activity,SH-SY5Y,Non-Toxic
same,Ki,Acetylcholinesterase,394 nM
same,Kdiss,Homo sapiens,2.56 10^-2/s
same,Activity,[1],Active
same,Activity,[2],Active
same,Activity,HT-22 [3],Dose-dependent effect
same,Activity,HT-22 [4],Dose-dependent effect
same,Activity,HT-22 [5],Active
same,Activity,[6],Non-Toxic
same,Activity,[7],33.3%
same,Activity,[8],50%
same,Activity,[9],100%
same,Activity,[10],66.7%
same,Activity,[11],46.7%
same,mortality at 1.56 ug/ml,[12],6.7%
same,mortality at 50 ug/ml,[13],100%
same,mortality at 200 ug/ml,[14],100%
same,Activity,Danio rerio [15],Dose-dependent effect
same,Activity,Danio rerio [16],87%
same,Activity,Danio rerio [17],Dose-dependent effect
same,Activity,Danio rerio [18],12%
same,Time,Mus musculus [19],261.82 s
same,Time,Mus musculus [20],227.34 s
same,Activity,Mus musculus [21],100%
same,Drug metabolism,[22],Metabolite_Detected
same,Drug metabolism,[23],Metabolite_Detected
